Experimental data taken from ChEMBL document CHEMBL3217516, “Library synthesis and cytotoxicity of a family of 2-phenylacrylonitriles and discovery of an estrogen dependent breast cancer lead compound” (Medchemcomm, 2011).

Columns and labels:
Format in all cases: functional
[1] = tested on: HT-29; assay: Cytotoxicity against human HT-29 cells after 72 hrs by MTT assay; details: HT-29, 72 h
[2] = Cytotoxicity against human MIA cells after 72 hrs by MTT assay
[3] = Cytotoxicity against human SJ-G2 cells after 72 hrs by MTT assay; details: SJ-G2, 72 h
[4] = tested on: MCF7; assay: Cytotoxicity against human MCF7 cells after 72 hrs by MTT assay; details: MCF7, 72 h
[5] = Cytotoxicity against human H460 cells after 72 hrs by MTT assay; details: NCI-H460, 72 h
[6] = tested on: SW480; assay: Cytotoxicity against human SW480 cells after 72 hrs by MTT assay; details: SW480, 72 h
[7] = Cytotoxicity against human BE(2)-C cells after 72 hrs by MTT assay
[8] = tested on: DU-145; assay: Cytotoxicity against human DU145 cells after 72 hrs by MTT assay; details: DU-145, 72 h
[9] = tested on: A-431; assay: Cytotoxicity against human A431 cells after 72 hrs by MTT assay; details: A-431, 72 h
[10] = tested on: A2780; assay: Cytotoxicity against human A2780 cells after 72 hrs by MTT assay; details: A2780, 72 h
[11] = tested on: MCF7; assay: Cytotoxicity against human MCF7 cells at 100 uM after 72 hrs by MTT assay; details: MCF7, 72 h, read-out: GI
[12] = Cytotoxicity against human BE(2)-C cells at 100 uM after 72 hrs by MTT assay; details: read-out: GI
[13] = tested on: SW480; assay: Cytotoxicity against human SW480 cells at 100 uM after 72 hrs by MTT assay; details: SW480, 72 h, read-out: GI
[14] = tested on: A-431; assay: Cytotoxicity against human A431 cells at 100 uM after 72 hrs by MTT assay; details: A-431, 72 h, read-out: GI
[15] = tested on: DU-145; assay: Cytotoxicity against human DU145 cells at 100 uM after 72 hrs by MTT assay; details: DU-145, 72 h, read-out: GI
[16] = Cytotoxicity against human H460 cells at 100 uM after 72 hrs by MTT assay; details: NCI-H460, 72 h, read-out: GI
[17] = tested on: A2780; assay: Cytotoxicity against human A2780 cells at 100 uM after 72 hrs by MTT assay; details: A2780, 72 h, read-out: GI
[18] = tested on: HT-29; assay: Cytotoxicity against human HT-29 cells at 100 uM after 72 hrs by MTT assay; details: HT-29, 72 h, read-out: GI
[19] = Cytotoxicity against human SJ-G2 cells at 100 uM after 72 hrs by MTT assay; details: SJ-G2, 72 h, read-out: GI
[20] = Cytotoxicity against human MIA cells at 100 uM after 72 hrs by MTT assay; details: read-out: GI

Row | SMILES | GI50 [1] | GI50 [2] | GI50 [3] | GI50 [4] | GI50 [5] | GI50 [6] | GI50 [7] | GI50 [8] | GI50 [9] | GI50 [10] | inhibition of growth at 100 µM [11] | inhibition of growth at 100 µM [12] | inhibition of growth at 100 µM [13] | inhibition of growth at 100 µM [14] | inhibition of growth at 100 µM [15] | inhibition of growth at 100 µM [16] | inhibition of growth at 100 µM [17] | inhibition of growth at 100 µM [18] | inhibition of growth at 100 µM [19] | inhibition of growth at 100 µM [20]
1 | N#C/C(=C\c1ccc[nH]1)c1ccccc1 | 41 µM | 81 µM | 46 µM | 17 µM | 81 µM | 26 µM | 61 µM | > 100 µM | 57 µM | 25 µM | – | – | – | – | – | – | – | – | – | –
2 | N#C/C(=C\c1ccc(Br)cc1)c1ccc(Cl)c(Cl)c1 | 20 µM | 21 µM | 22 µM | 16 µM | 21 µM | 22 µM | 21 µM | 26 µM | 20 µM | 20 µM | – | – | – | – | – | – | – | – | – | –
3 | N#C/C(=C\c1ccc(O)cc1)c1ccc(Cl)c(Cl)c1 | 30 µM | 28 µM | 21 µM | 23 µM | 26 µM | 36 µM | 22 µM | 45 µM | 21 µM | 20 µM | – | – | – | – | – | – | – | – | – | –
4 | COc1ccc(/C=C(/C#N)C(=O)c2ccc[nH]2)cc1 | < 10 µM | < 10 µM | < 10 µM | 22 µM | 24 µM | < 10 µM | < 10 µM | < 10 µM | 13 µM | < 10 µM | – | – | – | – | – | – | – | – | – | –
5 | N#C/C(=C\c1ccncc1)c1ccc(Cl)c(Cl)c1 | 18 µM | 22 µM | 22 µM | 15 µM | 9.4 µM | 18 µM | 16 µM | 24 µM | 26 µM | 18 µM | – | – | – | – | – | – | – | – | – | –
6 | Cc1ccc(/C=C(\C#N)c2ccc(Cl)c(Cl)c2)cc1 | 1.6 µM | 2 µM | 2.1 µM | 2.2 µM | 2.1 µM | 2.3 µM | 2.2 µM | 2.2 µM | 1.8 µM | 2 µM | – | – | – | – | – | – | – | – | – | –
7 | N#C/C(=C/c1ccc(Cl)c(Cl)c1)C(=O)c1ccc[nH]1 | < 10 µM | < 10 µM | 10 µM | 14 µM | < 10 µM | < 10 µM | 14 µM | < 10 µM | < 10 µM | < 10 µM | – | – | – | – | – | – | – | – | – | –
8 | N#C/C(=C\c1ccc[nH]1)c1ccc(F)cc1 | 31 µM | 63 µM | 30 µM | 15 µM | 52 µM | 24 µM | 43 µM | 59 µM | 37 µM | 25 µM | – | – | – | – | – | – | – | – | – | –
9 | N#CC(Cc1ccc[nH]1)c1ccc([N+](=O)[O-])cc1 (configuration not stated) | 67 µM | 82 µM | 87 µM | 37 µM | 64 µM | 70 µM | 65 µM | 90 µM | 78 µM | 29 µM | – | – | – | – | – | – | – | – | – | –
10 | N#C/C(=C\c1ccc[nH]1)c1ccc([N+](=O)[O-])cc1 | 25 µM | 34 µM | 24 µM | 18 µM | 32 µM | 24 µM | 22 µM | 26 µM | 27 µM | 18 µM | – | – | – | – | – | – | – | – | – | –
11 | N#C/C(=C/c1ccc(Cl)cc1)C(=O)c1ccc[nH]1 | 54 µM | 59 µM | 53 µM | 84 µM | 38 µM | 68 µM | 63 µM | 32 µM | 31 µM | 75 µM | – | – | – | – | – | – | – | – | – | –
12 | N#C/C(=C\c1ccc(Cl)cc1)c1ccc(Cl)c(Cl)c1 | 2.5 µM | 4 µM | 6.1 µM | 4.3 µM | 4.8 µM | 5 µM | 4.1 µM | 12 µM | 4.3 µM | 4 µM | – | – | – | – | – | – | – | – | – | –
13 | N#CC(Cc1ccc[nH]1)c1ccccc1 (configuration not stated) | – | – | – | – | – | – | – | – | – | – | 47% | 43% | 40% | 20% | 7% | 15% | 76% | 39% | 27% | 30%
14 | N#C/C(=C\c1ccc(F)cc1)c1ccc(Cl)c(Cl)c1 | – | 11 µM | – | – | – | – | – | – | – | – | – | – | – | – | – | – | – | – | – | –
15 | N#C/C(=C/c1ccc2ccccc2c1)C(=O)c1ccc[nH]1 | < 10 µM | < 10 µM | < 10 µM | 12 µM | < 10 µM | < 10 µM | < 10 µM | < 10 µM | < 10 µM | < 10 µM | – | – | – | – | – | – | – | – | – | –
16 | N#CC(Cc1ccc[nH]1)c1ccc(Cl)c(Cl)c1 (configuration not stated) | – | – | – | – | – | – | – | – | – | – | 84% | 42% | 34% | 44% | 24% | 55% | 63% | 51% | 33% | 20%
17 | N#C/C(=C\c1ccc2ccccc2c1)c1ccc(Cl)c(Cl)c1 | 1.6 µM | 2.1 µM | 2.3 µM | 1.5 µM | 1.7 µM | 2.3 µM | 1.9 µM | 2.7 µM | 1.8 µM | 1.8 µM | – | – | – | – | – | – | – | – | – | –
18 | N#CC(Cc1ccc[nH]1)c1ccc(Cl)cc1 (configuration not stated) | 37 µM | 58 µM | 52 µM | 26 µM | 58 µM | 53 µM | 45 µM | 60 µM | 58 µM | 26 µM | – | – | – | – | – | – | – | – | – | –
19 | CC(=O)Oc1ccc(/C=C(\C#N)c2ccc(Cl)c(Cl)c2)cc1 | 18 µM | 38 µM | 21 µM | 25 µM | 33 µM | 27 µM | 22 µM | 47 µM | 25 µM | 18 µM | – | – | – | – | – | – | – | – | – | –
20 | N#C/C(=C/c1ccc([N+](=O)[O-])cc1)C(=O)c1ccc[nH]1 | < 10 µM | < 10 µM | < 10 µM | 19 µM | < 10 µM | < 10 µM | 19 µM | < 10 µM | < 10 µM | 19 µM | – | – | – | – | – | – | – | – | – | –
21 | N#C/C(=C/c1ccc(O)cc1)C(=O)c1ccc[nH]1 | < 10 µM | 11 µM | < 10 µM | 15 µM | < 10 µM | < 10 µM | < 10 µM | < 10 µM | < 10 µM | < 10 µM | – | – | – | – | – | – | – | – | – | –
22 | CCCCCCCCC/C=C(\C#N)c1ccc(Cl)c(Cl)c1 | – | – | – | – | – | – | – | – | – | – | 49% | 73% | 68% | 88% | 87% | 100% | 24% | 53% | 70% | 22%
23 | N#C/C(=C\c1ccccc1)c1ccc(Cl)c(Cl)c1 | – | – | – | – | – | – | – | – | – | – | 79% | 47% | 67% | 71% | 36% | 36% | 62% | 56% | 72% | 61%
24 | N#CC(Cc1ccc[nH]1)c1ccc(F)cc1 (configuration not stated) | 73 µM | 90 µM | 86 µM | 65 µM | 88 µM | 78 µM | 75 µM | 91 µM | 89 µM | 69 µM | – | – | – | – | – | – | – | – | – | –
25 | CCCC/C=C(\C#N)c1ccc(Cl)c(Cl)c1 | 53 µM | 95 µM | 70 µM | 49 µM | 100 µM | 68 µM | 73 µM | 87 µM | 88 µM | 24 µM | – | – | – | – | – | – | – | – | – | –
26 | Cc1ccc(/C=C(/C#N)C(=O)c2ccc[nH]2)cc1 | 14 µM | 27 µM | 20 µM | 39 µM | 11 µM | 14 µM | 11 µM | < 10 µM | < 10 µM | 19 µM | – | – | – | – | – | – | – | – | – | –
27 | N#C/C(=C\c1ccc[nH]1)c1ccc(Cl)cc1 | 18 µM | 38 µM | 20 µM | 4 µM | 19 µM | 22 µM | 21 µM | 37 µM | 23 µM | 18 µM | – | – | – | – | – | – | – | – | – | –
28 | COc1ccc(/C=C(\C#N)c2ccc(Cl)c(Cl)c2)cc1 | – | 0.7 µM | – | – | – | – | – | – | – | – | – | – | – | – | – | – | – | – | – | –
29 | N#C/C(=C\c1cc(O)cc(O)c1)c1ccc(Cl)c(Cl)c1 | > 100 µM | > 100 µM | 95 µM | 28 µM | > 100 µM | 90 µM | > 100 µM | > 100 µM | 88 µM | 93 µM | – | – | – | – | – | – | – | – | – | –
